Reference: patent publication US9416128B2, “Fused heterocyclic compounds as ion channel modulators” (Gilead Sciences, Inc., priority 2013, dated 2016)

Key:
[1] = biological target: hNaV1.1 (SCN1A) (Homo sapiens, UniProt P35498); experiment: Use-dependent inhibition of the CNS NaV1.1 sodium channel; format: cell-based; settings: % inhibition, 25 Hz; for inhibition at 1 µM: use-dependent block at 1 uM, read-out: Nav1.1 UDB 25 Hz 1 uM; for inhibition at 10 µM: use-dependent block at 10 uM, read-out: Nav1.1 UDB 25 Hz 10 uM
Description: HEK-293 cells stably expressing wild-type (WT) hNaV1.1 (SCN1A, NCBI# AB09354) were obtained from Millipore (Cat. # CYL3009) were used to record INa. Cells are maintained with standard tissue culture procedures and stable channel expression is maintained with 400 ug/mL G418 in the culture medium. Unless otherwise noted, all reagents are purchased from Sigma-Aldrich (St Louis, Mo., U.S.A.).
Assays measuring Use-Dependent Block (UDB) of NaV1.2 are performed on an automated electrophysiology platform, QPatch 16X or QPatch HT (Sophion Bioscience, Copenhagen, Denmark), using the whole cell patch clamp technique to measure currents through the cell membrane. Series resistance compensation is set to 100% and series resistance and whole-cell compensation are performed automatically. Currents stored in the Sophion Bioscience Oracle database (Sophion Bioscience, Copenhagen, Denmark). Analysis is performed using QPatch Assay software and data are compiled in Excel 2010 (Microsoft, Seattle, Wash., U.S.A.).
The internal (pipette) solution consists of (in mM) 105 CsF, 10 NaF, 20 CsCl, 2 EGTA, 10 HEPES, 10 Dextrose with a pH of 7.35 and osmolarity of 300 mOsmol/kg. The external (bath) solution contains in (mM): 145 NaCl, 4 KCl, 1.8 CaCl2, 1 MgCl2, 10 dextrose, 10 HEPES, with a pH of 7.35 and osmolarity of 310 mOsmol/kg. Experiments are carried out at 23-25° C.
(§1) Compound stocks are routinely made by the Gilead Sample Bank in vials to 10 mM in dimethyl sulfoxide (DMSO). In some cases, when compounds are not soluble in DMSO, they are made in 100% ethanol. Stocks are sonicated as necessary. […]
(§2) Cells are allowed to stabilize for 10 min after establishment of the whole-cell configuration before current is measured. The test compound is applied 2 times at 60 second intervals. After the second compound addition, a 200 second wait period was imposed to allow for equilibration.
Leak currents are subtracted by using an online P/4 procedure and all currents are low-pass Bessel filtered at 5 kHz and digitized at […].
Use-dependent block of NaV1.2 peak current is measured during pulse number 20 of a voltage pulse train (0 mV, 20 ms, 20 pulses, 25 Hz) from a holding potential of −120 mV. Currents are normalized to the peak current recorded in response to the first pulse in each frequency train. The voltage protocol for UDB was performed in the absence and presence of compound and percentage inhibition was calculated with respect to the compound free condition. Results are presented as mean percentage inhibition and data analysis is performed using QPatch Assay Software 4.0, and Excel 2002 (Microsoft, Seattle, Wash., U.S.A.).

[2] = biological target: T1, hNaV1.2 (SCN2A) (Homo sapiens, UniProt Q99250); experiment: Use-dependent inhibition of the CNS NaV1.2 sodium channel; format: cell-based; settings: HEK-293, % inhibition, 25 Hz; for inhibition at 1 µM: use-dependent block at 1 uM, read-out: Nav1.2 UDB 25 Hz 1 uM; for inhibition at 10 µM: use-dependent block at 10 uM, read-out: Nav1.2 UDB 25 Hz 10 uM
T1 construct: expressed in transfected cells
Description: HEK-293 cells stably expressing wild-type (WT) hNaV1.2 (SCN2A NCBI # NM_021007.2, SCN1B NCBI # NM_001037.4, SCN2B NCBI # NM_004588.2) were used to record INa. Cells are maintained with standard tissue culture procedures and stable channel expression is maintained with 800 ug/mL G418 and 3 ug/mL Puromycin in the culture medium. Unless otherwise noted, all reagents are purchased from Sigma-Aldrich (St Louis, Mo., U.S.A.).
Assays measuring Use-Dependent Block (UDB) of NaV1.2 are performed on an automated electrophysiology platform, QPatch 16X or QPatch HT (Sophion Bioscience, Copenhagen, Denmark), using the whole cell patch clamp technique to measure currents through the cell membrane. Series resistance compensation is set to 100% and series resistance and whole-cell compensation are performed automatically. Currents stored in the Sophion Bioscience Oracle database (Sophion Bioscience, Copenhagen, Denmark). Analysis is performed using QPatch Assay software and data are compiled in Excel 2010 (Microsoft, Seattle, Wash., U.S.A.). The internal (pipette) solution consists of (in mM) 105 CsF, 10 NaF, 20 CsCl, 2 EGTA, 10 HEPES, 10 Dextrose with a pH of 7.35 and osmolarity of 300 mOsmol/kg. The external (bath) solution contains in (mM): 145 NaCl, 4 KCl, 1.8 CaCl2, 1 MgCl2, 10 dextrose, 10 HEPES, with a pH of 7.35 and osmolarity of 310 mOsmol/kg. Experiments are carried out at 23-25° C.
as §1
as §2, with “equilibration. Leak currents are subtracted by using an online P/4 procedure and all currents are low-pass Bessel filtered at 5 kHz and digitized at […].” for “equilibration.”
Results are presented as mean percentage inhibition.
Use-dependent block of NaV1.2 peak current is measured during pulse number 20 of a voltage pulse train (0 mV, 20 ms, 20 pulses, 25 Hz) from a holding potential of −120 mV.
Currents are normalized to the peak current recorded in response to the first pulse in each frequency train. The voltage protocol for UDB was performed in the absence and presence of compound and percentage inhibition was calculated with respect to the compound free condition.
Data analysis is performed using QPatch Assay Software 4.0, and Excel 2002 (Microsoft, Seattle, Wash., U.S.A.).

T1 sequence (Q99250 whole entry): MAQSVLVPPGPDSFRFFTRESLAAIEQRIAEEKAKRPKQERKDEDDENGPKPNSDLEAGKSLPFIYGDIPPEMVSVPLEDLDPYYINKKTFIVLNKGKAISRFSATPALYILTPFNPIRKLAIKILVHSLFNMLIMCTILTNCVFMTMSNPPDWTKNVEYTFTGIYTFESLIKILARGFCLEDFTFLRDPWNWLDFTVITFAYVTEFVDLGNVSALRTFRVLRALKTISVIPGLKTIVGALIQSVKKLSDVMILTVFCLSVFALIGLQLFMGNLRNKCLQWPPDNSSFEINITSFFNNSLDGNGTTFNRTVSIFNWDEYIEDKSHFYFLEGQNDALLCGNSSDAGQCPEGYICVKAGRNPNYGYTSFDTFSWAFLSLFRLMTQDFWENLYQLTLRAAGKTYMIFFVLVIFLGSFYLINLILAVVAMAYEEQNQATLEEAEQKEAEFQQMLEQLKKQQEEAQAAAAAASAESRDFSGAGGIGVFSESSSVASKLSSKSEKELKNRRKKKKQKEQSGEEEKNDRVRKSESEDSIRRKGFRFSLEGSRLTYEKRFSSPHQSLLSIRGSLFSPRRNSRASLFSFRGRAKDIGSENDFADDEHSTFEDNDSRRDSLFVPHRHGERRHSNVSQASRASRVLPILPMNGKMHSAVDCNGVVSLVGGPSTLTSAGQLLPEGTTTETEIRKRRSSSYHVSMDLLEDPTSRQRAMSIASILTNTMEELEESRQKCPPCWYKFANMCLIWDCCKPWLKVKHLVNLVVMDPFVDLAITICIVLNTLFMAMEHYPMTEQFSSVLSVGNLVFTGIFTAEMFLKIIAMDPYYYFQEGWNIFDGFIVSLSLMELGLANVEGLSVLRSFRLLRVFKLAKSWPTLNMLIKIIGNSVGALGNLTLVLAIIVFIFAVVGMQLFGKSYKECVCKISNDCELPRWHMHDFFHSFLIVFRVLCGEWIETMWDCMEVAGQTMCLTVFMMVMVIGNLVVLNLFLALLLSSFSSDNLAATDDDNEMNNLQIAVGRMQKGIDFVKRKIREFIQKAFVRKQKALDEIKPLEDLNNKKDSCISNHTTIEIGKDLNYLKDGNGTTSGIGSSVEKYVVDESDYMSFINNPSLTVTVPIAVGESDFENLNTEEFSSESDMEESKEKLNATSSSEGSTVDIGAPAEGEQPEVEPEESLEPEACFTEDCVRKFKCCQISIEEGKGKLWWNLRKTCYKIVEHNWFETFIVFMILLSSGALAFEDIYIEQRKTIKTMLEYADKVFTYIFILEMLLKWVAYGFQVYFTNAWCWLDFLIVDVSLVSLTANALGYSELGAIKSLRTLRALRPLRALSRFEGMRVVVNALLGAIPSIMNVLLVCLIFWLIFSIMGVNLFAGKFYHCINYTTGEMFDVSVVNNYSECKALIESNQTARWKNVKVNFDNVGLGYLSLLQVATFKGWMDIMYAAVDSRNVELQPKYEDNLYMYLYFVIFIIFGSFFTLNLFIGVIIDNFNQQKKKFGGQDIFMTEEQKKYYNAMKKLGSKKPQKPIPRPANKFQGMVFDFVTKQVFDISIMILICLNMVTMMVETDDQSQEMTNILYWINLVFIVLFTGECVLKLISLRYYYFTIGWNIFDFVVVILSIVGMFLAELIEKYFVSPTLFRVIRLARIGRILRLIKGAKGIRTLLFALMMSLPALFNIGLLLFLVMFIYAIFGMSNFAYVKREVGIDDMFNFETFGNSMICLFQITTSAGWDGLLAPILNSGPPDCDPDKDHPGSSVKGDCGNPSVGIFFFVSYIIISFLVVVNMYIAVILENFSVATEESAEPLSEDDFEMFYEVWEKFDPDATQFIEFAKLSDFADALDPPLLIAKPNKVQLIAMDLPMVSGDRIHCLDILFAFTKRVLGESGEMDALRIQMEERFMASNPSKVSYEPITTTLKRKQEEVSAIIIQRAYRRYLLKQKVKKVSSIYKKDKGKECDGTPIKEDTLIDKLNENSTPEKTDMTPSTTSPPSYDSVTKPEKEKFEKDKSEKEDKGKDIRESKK
T1 sequence (Q07699 19-218 partner): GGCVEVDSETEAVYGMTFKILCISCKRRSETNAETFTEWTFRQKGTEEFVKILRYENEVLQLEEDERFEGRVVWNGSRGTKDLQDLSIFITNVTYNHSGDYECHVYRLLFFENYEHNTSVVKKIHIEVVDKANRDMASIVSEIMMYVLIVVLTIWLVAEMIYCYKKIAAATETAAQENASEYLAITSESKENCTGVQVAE
T1 sequence (O60939 30-215 partner): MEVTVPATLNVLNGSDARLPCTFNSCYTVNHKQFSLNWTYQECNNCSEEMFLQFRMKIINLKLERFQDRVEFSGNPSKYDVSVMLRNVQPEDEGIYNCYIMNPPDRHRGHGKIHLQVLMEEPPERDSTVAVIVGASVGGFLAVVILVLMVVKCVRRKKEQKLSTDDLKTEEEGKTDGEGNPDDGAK

| SMILES | inhibition at 1 µM [1] [%] | inhibition at 10 µM [1] [%] | inhibition at 1 µM [2] [%] | inhibition at 10 µM [2] [%] |
| --- | --- | --- | --- | --- |
| O=C1Oc2ccc(-c3ccc(OC(F)(F)F)cc3F)cc2CN1Cc1ncccn1 [Example 7, 6-(2-fluoro-4-(trifluoromethoxy)phenyl)-3-(pyrimidin-2-ylmethyl)-3,4-dihydro-2H-benzo[e][1,3]oxazin-2-one] | 5.7 | 42.4 | 18 | 56.3 |
| Cc1cccc(CN2Cc3cc(-c4ccc(C(F)(F)F)cc4F)ccc3OC2=O)n1 [Example 45, 6-(2-fluoro-4-(trifluoromethyl)phenyl)-3-((6-methylpyridin-2-yl)methyl)-3,4-dihydro-2H-benzo[e][1,3]oxazin-2-one] | 19.9 | 72.8 | 10.4 | 62.3 |
| COc1cc(OC(F)(F)F)ccc1-c1ccc2c(c1)CN(Cc1ncccn1)C(=O)O2 [Example 9, 6-(2-methoxy-4-(trifluoromethoxy)phenyl)-3-(pyrimidin-2-ylmethyl)-3,4-dihydro-2H-benzo[e][1,3]oxazin-2-one] | < 5 | 34.4 | 7.9 | 37 |
| COc1cc(C(F)(F)F)ccc1-c1ccc2c(c1)CN(Cc1ncccn1)C(=O)O2 [Example 34, 6-(2-methoxy-4-(trifluoromethyl)phenyl)-3-(pyrimidin-2-ylmethyl)-3,4-dihydro-2H-benzo[e][1,3]oxazin-2-one] | 26.9 | 76.1 | 38.8 | 78.5 |
| O=C1Oc2ccc(-c3ccc(C(F)(F)F)cc3)cc2CN1Cc1ccncc1 [Example 2, 3-(pyridin-4-ylmethyl)-6-(4-(trifluoromethyl)phenyl)-3,4-dihydro-2H-benzo[e][1,3]oxazin-2-one] | 9.7 | 22.6 | 19.8 | 28.1 |
| COc1cc(OC(F)(F)F)ccc1-c1ccc2c(c1)CN(Cc1nc(C)cs1)C(=O)O2 [Example 58, 6-(2-methoxy-4-(trifluoromethoxy)phenyl)-3-((4-methylthiazol-2-yl)methyl)-3,4-dihydro-2H-benzo[e][1,3]oxazin-2-one] | 7.8 | 68.7 | 10.6 | 58.7 |
| Cc1cc(-c2ccc3c(c2)CN(Cc2ncccn2)C(=O)O3)ccc1OC(F)(F)F [Example 5, 6-(3-methyl-4-(trifluoromethoxy)phenyl)-3-(pyrimidin-2-ylmethyl)-3,4-dihydro-2H-benzo[e][1,3]oxazin-2-one] | < 5 | 15.3 | < 5 | 24.9 |
| CC1c2cc(-c3ccc(Cl)c(F)c3)ccc2OC(=O)N1Cc1ncccn1 (stereo not shown) [Example 11, 6-(4-chloro-3-fluorophenyl)-4-methyl-3-(pyrimidin-2-ylmethyl)-3,4-dihydro-2H-benzo[e][1,3]oxazin-2-one] | 21 | 81.1 | 29.9 | 77.2 |
| Cc1cnc(CN2Cc3cc(-c4ccc(C(F)(F)F)cc4)ccc3OC2=O)nc1 [Example 13, 3-((5-methylpyrimidin-2-yl)methyl)-6-(4-(trifluoromethyl)phenyl)-3,4-dihydro-2H-benzo[e][1,3]oxazin-2-one] | 37.5 | 88.8 | 21.4 | 63.4 |
| Cc1cnc(CN2Cc3cc(-c4ccc(OC(F)(F)F)cc4)ccc3OC2=O)nc1 [Example 12, 3-((5-methylpyrimidin-2-yl)methyl)-6-(4-(trifluoromethoxy)phenyl)-3,4-dihydro-2H-benzo[e][1,3]oxazin-2-one] | 7.5 | 73.9 | 15.4 | 68.8 |
| Cc1ccnc(CN2Cc3cc(-c4ccc(OC(F)(F)F)cc4)ccc3OC2=O)n1 [Example 29, 3-((4-methylpyrimidin-2-yl)methyl)-6-(4-(trifluoromethoxy)phenyl)-3,4-dihydro-2H-benzo[e][1,3]oxazin-2-one] | 44.7 | 86.8 | 36.1 | 81.7 |
| CCCOc1cc(C(F)(F)F)ccc1-c1ccc2c(c1)CN(Cc1ncccn1)C(=O)O2 [Example 27, 6-(2-propoxy-4-(trifluoromethyl)phenyl)-3-(pyrimidin-2-ylmethyl)-3,4-dihydro-2H-benzo[e][1,3]oxazin-2-one] | 28.4 | 77.5 | 42.2 | 80.6 |
| Cc1cnc(CN2Cc3cc(-c4ccc(OC(F)(F)F)cc4F)ccc3OC2=O)nc1 [Example 14, 6-(2-fluoro-4-(trifluoromethoxy)phenyl)-3-((5-methylpyrimidin-2-yl)methyl)-3,4-dihydro-2H-benzo[e][1,3]oxazin-2-one] | < 5 | 43.8 | < 5 | 59.9 |
| Cc1csc(CN2Cc3cc(-c4ccc(OC(F)(F)F)cc4)ccc3OC2=O)n1 [Example 52, 3-((4-methylthiazol-2-yl)methyl)-6-(4-(trifluoromethoxy)phenyl)-3,4-dihydro-2H-benzo[e][1,3]oxazin-2-one] | 32.9 | 57.6 | 20.8 | 63.7 |
| O=C1Oc2ccc(-c3ccc(OC(F)(F)F)c(F)c3)cc2CN1Cc1ncccn1 [Example 10, 6-(3-fluoro-4-(trifluoromethoxy)phenyl)-3-(pyrimidin-2-ylmethyl)-3,4-dihydro-2H-benzo[e][1,3]oxazin-2-one] | 35 | 75.9 | 30.2 | 75 |
| COc1cc(OC(F)(F)F)ccc1-c1ccc2c(c1)CN(CCc1ncccn1)C(=O)O2 [Example 18, 6-(2-methoxy-4-(trifluoromethoxy)phenyl)-3-(2-(pyrimidin-2-yl)ethyl)-3,4-dihydro-2H-benzo[e][1,3]oxazin-2-one] | 16.9 | 73.4 | 9.1 | 54.9 |
